The values that follow come from ChEMBL document CHEMBL2016536, “New triazole derivatives as antifungal agents: synthesis via click reaction, in vitro evaluation and molecular docking studies” (2012).

Common to all, as to type: functional
Assay [1] concerns Candida parapsilosis. The experiment in a line: Antifungal activity against Candida parapsilosis by microbroth dilution method. The settings on record: Lodderomyces parapsilosis. On the technique in general: Dilution methods test growth across graded concentrations, often in twofold steps.
For assay [2], the system named is Candida tropicalis. The experiment in a line: Antifungal activity against Candida tropicalis by microbroth dilution method.
Assay [3] concerns Kluyveromyces marxianus. Put plainly: Antifungal activity against Candida kefyr by microbroth dilution method.
The test system of assay [4] is Trichophyton rubrum. Put plainly: Antifungal activity against Trichophyton rubrum by microbroth dilution method.
Assay [5] deals with Aspergillus fumigatus. Put plainly: Antifungal activity against Aspergillus fumigatus by microbroth dilution method.
The test system of assay [6] is Candida albicans. Put plainly: Antifungal activity against Candida albicans SC5314 after 24 hrs by microbroth dilution method. As to conditions: SC5314, 24 h.
The subject of assay [7] is Candida albicans. Put plainly: Antifungal activity against Candida albicans Y0109 after 24 hrs by microbroth dilution method. As to conditions: Y0109, 24 h.
For assay [8], the system named is Cryptococcus neoformans. The experiment in a line: Antifungal activity against Cryptococcus neoformans after 72 hrs by microbroth dilution method.

SMILES strings stand for the structures. Values after ≈ are worked out from the molar mass of the structure shown. A value given as a limit tells only on which side of the number the result lay.

Regarding `C[C@@H]1[C@H](O)[C@@H](C)/C=C/C=C/C=C/C=C/C=C/C=C/C=C/[C@H](O[C@@H]2O[C@H](C)[C@@H](O)[C@H](N)[C@@H]2O)C[C@@H]2O[C@](O)(C[C@@H](O)C[C@@H](O)[C@H](O)CC[C@@H](O)C[C@@H](O)CC(=O)O[C@H]1C)C[C@H](O)[C@H]2C(=O)O` [AMPHOTERICIN B], the MIC80 (in general, the lowest concentration that inhibits either 80% of growth or 80% of the strains tested, depending on the study) in assay [1] was found to be 0.25 µg/mL (≈ 0.271 µM); in assay [2], 1 µg/mL (≈ 1.08 µM); in assay [3], 0.25 µg/mL (≈ 0.271 µM); in assay [4], 4 µg/mL (≈ 4.33 µM); in assay [5] it was 1 µg/mL (≈ 1.08 µM); in assay [6], 0.25 µg/mL (≈ 0.271 µM). The MIC80 in assay [7] came to 0.25 µg/mL (≈ 0.271 µM); in assay [8], 1 µg/mL (≈ 1.08 µM).

For the compound `OC(Cc1cn(Cc2ccccc2Br)nn1)(Cn1cncn1)c1ccc(F)cc1F` (centres undefined), the MIC80 in assay [1] was found to be 0.0625 µg/mL (≈ 0.131 µM); in assay [2] it was 0.0625 µg/mL (≈ 0.131 µM); in assay [3], 0.0625 µg/mL (≈ 0.131 µM); in assay [4], 0.25 µg/mL (≈ 0.526 µM); in assay [5], 4 µg/mL (≈ 8.42 µM); in assay [6] it was 0.0625 µg/mL (≈ 0.131 µM). The MIC80 in assay [7] was determined as 0.0625 µg/mL (≈ 0.131 µM); in assay [8] it was 0.25 µg/mL (≈ 0.526 µM).

As for `OC(Cc1cn(Cc2cccc(F)c2)nn1)(Cn1cncn1)c1ccc(F)cc1F` (centres undefined), the MIC80 in assay [1] is 0.125 µg/mL (≈ 0.302 µM); in assay [2] it was 0.25 µg/mL (≈ 0.603 µM); in assay [3] it was 0.0625 µg/mL (≈ 0.151 µM); in assay [4], 0.25 µg/mL (≈ 0.603 µM); in assay [5], 32 µg/mL (≈ 77.2 µM); in assay [6], below 0.125 µg/mL. Moreover, the MIC80 turned out to be 0.0625 µg/mL (≈ 0.151 µM) in assay [7] and 0.25 µg/mL (≈ 0.603 µM) in assay [8].

Consider `Cc1ccccc1Cn1cc(CC(O)(Cn2cncn2)c2ccc(F)cc2F)nn1` (centres undefined), for which the MIC80 came to 0.0625 µg/mL (≈ 0.152 µM) in assay [1]; 0.125 µg/mL (≈ 0.305 µM) in assay [2]; 0.0039 µg/mL (≈ 0.0095 µM) in assay [3]; 0.0625 µg/mL (≈ 0.152 µM) in assay [4]; 2 µg/mL (≈ 4.87 µM) in assay [5]; 0.0625 µg/mL (≈ 0.152 µM) in assay [6]. The MIC80 in assay [7] was 0.0156 µg/mL (≈ 0.038 µM); in assay [8], 0.125 µg/mL (≈ 0.305 µM).

Turning to `OC(Cc1cn(Cc2ccc(Cl)c(Cl)c2)nn1)(Cn1cncn1)c1ccc(F)cc1F` (centres undefined), the MIC80 in assay [1] was 0.125 µg/mL (≈ 0.269 µM); in assay [2], 0.125 µg/mL (≈ 0.269 µM); in assay [3] it was 0.25 µg/mL (≈ 0.537 µM); in assay [4], 0.25 µg/mL (≈ 0.537 µM); in assay [5], 32 µg/mL (≈ 68.8 µM); in assay [6], 0.25 µg/mL (≈ 0.537 µM). Moreover, the MIC80 in assay [7] is 0.125 µg/mL (≈ 0.269 µM); in assay [8] it was 1 µg/mL (≈ 2.15 µM).

Turning to `CCC(C)n1ncn(-c2ccc(N3CCN(c4ccc(OCC5COC(Cn6cncn6)(c6ccc(Cl)cc6Cl)O5)cc4)CC3)cc2)c1=O` (centres undefined) [ITRACONAZOLE], the MIC80 was determined as 0.0625 µg/mL (≈ 0.0886 µM) in assay [1]; 0.0625 µg/mL (≈ 0.0886 µM) in assay [2]; 0.125 µg/mL (≈ 0.177 µM) in assay [3]; 0.0625 µg/mL (≈ 0.0886 µM) in assay [4]; 0.0625 µg/mL (≈ 0.0886 µM) in assay [5]; 0.0625 µg/mL (≈ 0.0886 µM) in assay [6]. In addition, the MIC80 in assay [7] and in assay [8] was 0.0625 µg/mL (≈ 0.0886 µM) each time.

In the case of `OC(Cc1cn(Cc2ccccc2Cl)nn1)(Cn1cncn1)c1ccc(F)cc1F` (centres undefined), the MIC80 in assay [1] stood at 0.0625 µg/mL (≈ 0.145 µM); in assay [2], 0.0625 µg/mL (≈ 0.145 µM); in assay [3], 0.125 µg/mL (≈ 0.29 µM); in assay [4] it was 0.25 µg/mL (≈ 0.58 µM); in assay [5], 16 µg/mL (≈ 37.1 µM); in assay [6] it was 0.0625 µg/mL (≈ 0.145 µM). Also, the MIC80 in assay [7] was determined as 0.0625 µg/mL (≈ 0.145 µM); in assay [8], 0.25 µg/mL (≈ 0.58 µM).

As to `CC(C)(C)c1ccc(Cn2cc(CC(O)(Cn3cncn3)c3ccc(F)cc3F)nn2)cc1` (centres undefined), the MIC80 in assay [1] was found to be 0.125 µg/mL (≈ 0.276 µM); in assay [2], 0.0625 µg/mL (≈ 0.138 µM); in assay [3], 0.0625 µg/mL (≈ 0.138 µM); in assay [4], 0.0625 µg/mL (≈ 0.138 µM); in assay [5], 4 µg/mL (≈ 8.84 µM); in assay [6], 0.0625 µg/mL (≈ 0.138 µM). In addition, the MIC80 in assay [7] was 0.0625 µg/mL (≈ 0.138 µM); in assay [8] it was below 0.125 µg/mL.

Take `COc1ccc(OC)c(Cn2cc(CC(O)(Cn3cncn3)c3ccc(F)cc3F)nn2)c1` (centres undefined): the MIC80 in assay [1] was determined as 0.0625 µg/mL (≈ 0.137 µM); in assay [2], 0.125 µg/mL (≈ 0.274 µM); in assay [3], 0.0625 µg/mL (≈ 0.137 µM); in assay [4], 0.0625 µg/mL (≈ 0.137 µM); in assay [5], 2 µg/mL (≈ 4.38 µM); in assay [6] it was 0.0625 µg/mL (≈ 0.137 µM). For the same compound, the MIC80 was 0.0156 µg/mL (≈ 0.0342 µM) in assay [7] and 0.0625 µg/mL (≈ 0.137 µM) in assay [8].

With `OC(Cc1cn(Cc2cccc(Br)c2)nn1)(Cn1cncn1)c1ccc(F)cc1F` (centres undefined), the MIC80 was 0.125 µg/mL (≈ 0.263 µM) in assay [1]; 0.25 µg/mL (≈ 0.526 µM) in assay [2]; 0.125 µg/mL (≈ 0.263 µM) in assay [3]; 0.25 µg/mL (≈ 0.526 µM) in assay [4]; 8 µg/mL (≈ 16.8 µM) in assay [5]; below 0.125 µg/mL in assay [6]. Further, the MIC80 in assay [7] stood at 0.0625 µg/mL (≈ 0.131 µM); in assay [8], 0.25 µg/mL (≈ 0.526 µM).

With `O=[N+]([O-])c1cccc(Cn2cc(CC(O)(Cn3cncn3)c3ccc(F)cc3F)nn2)c1` (centres undefined), the MIC80 in assay [1] was below 0.25 µg/mL; in assay [2], 0.125 µg/mL (≈ 0.283 µM); in assay [3], 0.0625 µg/mL (≈ 0.142 µM); in assay [4], 0.25 µg/mL (≈ 0.566 µM); in assay [5] it was 32 µg/mL (≈ 72.5 µM); in assay [6], below 0.125 µg/mL. The MIC80 in assay [7] stood at 0.0625 µg/mL (≈ 0.142 µM); in assay [8], 0.5 µg/mL (≈ 1.13 µM).

With `COc1ccc(Cn2cc(CC(O)(Cn3cncn3)c3ccc(F)cc3F)nn2)cc1OC` (centres undefined), the MIC80 in assay [1] came out at 0.0625 µg/mL (≈ 0.137 µM); in assay [2], 0.125 µg/mL (≈ 0.274 µM); in assay [3], 0.0625 µg/mL (≈ 0.137 µM); in assay [4], 0.0625 µg/mL (≈ 0.137 µM); in assay [5], 2 µg/mL (≈ 4.38 µM); in assay [6], 0.0625 µg/mL (≈ 0.137 µM). In addition, the values for the MIC80 in assay [7] and in assay [8] were 0.0156 µg/mL (≈ 0.0342 µM) and 0.0625 µg/mL (≈ 0.137 µM), respectively.

Consider `N#Cc1ccc(Cn2cc(CC(O)(Cn3cncn3)c3ccc(F)cc3F)nn2)cc1` (centres undefined), for which the MIC80 is 0.25 µg/mL (≈ 0.593 µM) in assay [1]; 0.125 µg/mL (≈ 0.297 µM) in assay [2]; below 0.125 µg/mL in assay [3]; 0.25 µg/mL (≈ 0.593 µM) in assay [4]; 32 µg/mL (≈ 75.9 µM) in assay [5]; 0.125 µg/mL (≈ 0.297 µM) in assay [6]. Also, the MIC80 in assay [7] stood at 0.0625 µg/mL (≈ 0.148 µM); in assay [8] it was 0.5 µg/mL (≈ 1.19 µM).
